Tests used:
[1] = system: C57BL/6J diabetic model mice; assay: Four blood lipid items in serum of treated mice (T-CHO, TG, HDL-C, LDL-C kits); type: in vivo, C57BL/6J mice; conditions: subcutaneous rhCygb 5 mg/kg or exendin-4 50 μg/kg, after 28 d of treatment
Method: (§1) The AUC for blood glucose changes within two hours post-glucose gavage was shown in FIG. 5, confirming impaired glucose tolerance in the DM group. • 2) Successfully modeled mice were divided into three groups based on no statistical difference in blood glucose within groups and statistical difference in blood glucose between groups: wherein the three groups are rhCygb treatment group (5 mg/kg subcutaneous injection), exendin-4 treatment group (50 μg/kg subcutaneous injection), and placebo group (0.1 mL PBS subcutaneous injection) (grouping without re-caging, mice remained in original cages), respectively.
(§2) The mice of placebo group, rhCygb treatment group, and EX-4 treatment group received daily subcutaneous injections of PBS, rhCygb, or EX-4, respectively for 2 months (frequency adjusted based on survival status of mice). […] Absorbance at 510 nm was measured using a microplate reader. Cholesterol content was calculated according to the formula: […]
Serum from each treated C57BL/6J mouse was assayed using a total cholesterol assay kit. […] Absorbance at 510 nm was measured using a microplate reader. […] content was calculated according to the formula: […]
Serum from each treated C57BL/6J mouse was assayed using a triglyceride assay kit. […] Absorbance at 546 nm (A1) was measured using a microplate reader. […] Absorbance at 546 nm (A2) was measured again. […]

[2] = system: pancreatic tissue of C57BL/6J diabetic model mice; assay: H&E staining of pancreatic tissue sections; type: in vivo, C57BL/6J mice; conditions: acinar cell steatosis, islet morphology, inflammation; FIGS. 12A-12D
Method: as §1, §2
The severity of lesions observed in the HE-stained pathological sections of each mouse was graded. This ordinal data was analyzed using the K Independent Samples non-parametric test in SPSS software, and the result indicated a statistically significant difference between groups. As SPSS lacks pairwise comparison for multiple independent samples, all data were ranked and converted into quantitative data, then subjected to one-way ANOVA.

Exendin-4 [reference compound]
total cholesterol levels ([1]; FIG. 8): statistically significant reduction in total cholesterol levels compared to the placebo group | LDL-C levels ([1]; FIG. 11): statistically significant reduction in LDL-C levels compared to the placebo group | pancreatic tissue morphology (H&E) [2]: persistent acinar steatosis similar to the PBS group
